In US5373020A, “Substituted 5-(2-((2-aryl-2-hydroxyethyl)amino)propyl)-1,3-benzodioxoles” (American Cyanamid Company, priority 1993, dated 1994):

How the values were obtained:
[1] = system: ob/ob mice; experiment: Change in weight and food consumption, compound in chow, obese mice; assay type: in vivo, mouse (C57 B1/6J ob/ob)
Experimental: (§1) The compounds of this invention were tested for hypoglycemic and anti-obesity activity according to the following procedure.
(§2) Obese mice (C57 B1/6J (ob/ob)), and/or diabetic mice (C57 B1/KsJ (db/db)) were obtained from Jackson Laboratories, Bar Harbor, Maine. Obese rats (fa/fa) were obtained from Charles River Laboratories, Wilmington, Mass. Obese mice were 8 weeks of age and diabetic mice were 9 weeks of age at the start of the test. Obese rats were 12-14 weeks of age at the start.
(§3) The test compounds were dissolved in methanol, mixed with powdered Purina rodent chow on a weight of compound to weight of chow basis and thoroughly dried.
(§4) Groups of 6 control mice or rats received vehicle (methanol) treated chow.
(§5) Groups of 6 test mice were fed ad libitum for up to seven weeks and food consumption was measured daily by weighing the food bins before and after the addition of fresh chow. Thus, a 40 g mouse, fed the test compound at a concentration of 0.02 percent of the diet, would receive a dose of 20 mg/kg/day if it ate 4 g of chow per day.
(§6) The mice or rats were weighed before the first treatment and once at the end of each indicated treatment period.

[2] = system: ob/ob mice; experiment: Plasma glucose, compound in chow, obese mice; assay type: in vivo, mouse (C57 B1/6J ob/ob)
Experimental: as §1, §2, §3, §4
[…] Thus, a 40 g mouse, fed the test compound at a concentration of 0.02 percent of the diet, would receive a dose of 20 mg/kg/day if it ate 4 g of chow per day.
as §6
(§7) Blood samples were collected before the first treatment and once at the end of each indicated treatment period by retro-orbital puncture using heparinized capillary tubes.
(§8) Plasma was separated by centrifugation in a Beckman microfuge for 5 minutes. Plasma glucose concentrations were determined with the Beckman glucose analyzer which uses a glucose oxidase method.

[3] = system: db/db mice; experiment: Plasma glucose, compound in chow, diabetic mice; assay type: in vivo, mouse (C57 B1/KsJ db/db)
Experimental: as §1, §2, §3, §4, §5, §6, §7, §8

[4] = target: T1, β1-receptors (Cavia porcellus, UniProt H0W3H1); experiment: Effect on heart rate of isolated right atria (β1-effect); parameters: species or system guinea pig
T1 construct: from tissue; host or cells: guinea pig right atria
Experimental: (§9) β-Adrenergic receptors can be divided into β1, β2 and β3 -subtypes. Activation of β1 -receptors invokes increases in heart rate while activation of β2 -receptors stimulates glycogen breakdown in muscle and thereby prevents glycogen synthesis. Activation of β3 -receptors stimulates lipolysis (the breakdown of adipose tissue triglycerides to glycerol and free fatty acids), and thereby promotes the loss of fat mass.
Selectivity of a compound was determined using the following procedures. The effect on heart rate (β1 -effect) was determined using isolated right atria. […] The right atria were dissected and clamped at one end to a tissue holder and electrode assembly (MRA Corp.) and tied at the other end to a force-displacement transducer (Gould-Statham, Burco). The tissues were maintained at 32° C. in a 50 ml capacity glass chamber (MRA Corp.) preloaded with 0.5 g tension. Heart rate was monitored by a Grass polygragh. […] The increase in heart rate was calculated and considered to be the maximum response for that tissue. The tissues were then washed and allowed to equilibrate for 90 minutes. Cumulative concentration-response curves were then determined for each compound or vehicle. All responses were measured 5 minutes post-exposure.

[5] = target: T2, β3-receptors (Rattus norvegicus, UniProt P26255); experiment: Stimulation of adipocyte lipolysis (β3-effect); assay type: cell-based; settings: CL1 vs BRL1 (FIG. 1), CL2 vs BRL2 (FIG. 2)
T2 construct: Rat epididymal fat pads were excised and placed in 0.9% saline; from tissue; host or cells: collagenase-isolated adipocytes from rat epididymal fat pads
Experimental: as §9
The β3 -effect of the compounds was determined by their ability to stimulate adipocyte lipolysis. Rat epididymal fat pads were excised and placed in 0.9% saline. Four grams of tissue were transferred to a flask with 20 ml of aerated Krebs-Henseleit bicarbonate (KHB) buffer containing 3% fatty acid-free bovine serum albumin to which 75 mg of crude bacterial collagenase (Worthington) had been added. The tissue was incubated for about 45 minutes at 37° C. with gentle shaking. The cells were then washed three times with two volumes of KHB buffer, filtered through two layers of gauze, and brought to a final volume of 80 ml with KHB buffer. One ml aliquots of the cell suspension were added to plastic test tubes containing the appropriate additions of vehicle or compound. The cells were gassed for 1 minute with 95% O2 -5% CO2, capped, and incubated at 37° C. with continuous shaking for a total of 30 minutes. The reaction was stopped by adding 0.1 ml of 30% perchloric acid and 0.1 ml of chloroform. After centrifugation, 0.5 ml of supernatant was transferred to another test tube and neutralized with 0.04 ml of 3M K2 CO3 -0.5M triethanolamine. The amount-of glycerol generated from the hydrolysis of endogenous triglycerides was determined in a coupled-enzyme spectrophotometric assay. […] The test tubes were incubated for 40 minutes at 37° C. with constant shaking. […] This value was corrected for the amount of NADH generated in the absence of glycerol by incubating another aliquot of the neutralized extract with the same assay mixture but without glycerokinase.

[6] = target: T3, β2-receptors (Mus musculus, UniProt P18762); experiment: Inhibition of insulin-mediated incorporation of 14C-glucose into glycogen in isolated soleus muscle (β2-effect)
T3 construct: Soleus muscle from mice were dissected; from tissue; host or cells: mouse soleus muscle
Experimental: as §9
The β2 -effect of the compounds was determined by their ability to inhibit the insulin-mediated incorporation of ^14 C-glucose into glycogen in isolated muscle. Soleus muscle from mice were dissected, tied at each end, and placed in a clamp to maintain tension. The clamped muscle was added to a vial that contained 2 ml of KHB with 1.5% bovine serum albumin, 0.3 mU/ml insulin, 5 mM (U^-14 C) glucose, and the appropriate additions of compound or vehicle. The vial was gassed with 95% O2 -5% CO2, capped, and the tissue incubated for one hour in a rotating water bath at 37° C. The muscle was then removed, rinsed in ice-cold saline, blotted and weighed. It was then added to 1 ml of 30% KOH containing 5 mg/ml of oyster glycogen, boiled for 10 minutes, and 0.4 ml of 2% Na2 SO4 and 3.2 ml of 100% ethanol added. After standing overnight at 4° C., the glycogen was pelleted by centrifugation, washed once with 66% ethanol, and repelleted. The pellet was dissolved in 1 ml of water and the amount of radioactivity present determined by liquid scintillation.

[7] = dose 0.002 % wt of chow, week 1
[8] = dose 0.002 % wt of chow, week 4
[9] = dose 0.005 % wt of chow, week 1
[10] = dose 0.005 % wt of chow, week 4
[11] = dose 0.002 % wt of chow, week 0 (before treatment)
[12] = dose 0.005 % wt of chow, week 0 (before treatment)
[13] = CL1 vs BRL1 (FIG. 1), CL2 vs BRL2 (FIG. 2)

T3 sequence (P18762 whole entry): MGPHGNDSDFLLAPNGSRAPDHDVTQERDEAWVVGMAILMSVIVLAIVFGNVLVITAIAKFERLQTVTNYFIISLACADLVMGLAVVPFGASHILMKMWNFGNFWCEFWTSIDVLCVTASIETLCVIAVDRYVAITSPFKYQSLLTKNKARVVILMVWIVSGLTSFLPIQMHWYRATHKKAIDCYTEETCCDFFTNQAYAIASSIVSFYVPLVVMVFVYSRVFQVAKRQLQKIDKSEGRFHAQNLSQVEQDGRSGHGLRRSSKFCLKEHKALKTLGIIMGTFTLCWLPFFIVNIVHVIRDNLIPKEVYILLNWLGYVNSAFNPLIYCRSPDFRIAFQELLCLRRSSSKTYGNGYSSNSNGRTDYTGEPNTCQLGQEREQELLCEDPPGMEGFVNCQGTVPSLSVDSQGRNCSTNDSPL
T1 sequence (H0W3H1 1-470): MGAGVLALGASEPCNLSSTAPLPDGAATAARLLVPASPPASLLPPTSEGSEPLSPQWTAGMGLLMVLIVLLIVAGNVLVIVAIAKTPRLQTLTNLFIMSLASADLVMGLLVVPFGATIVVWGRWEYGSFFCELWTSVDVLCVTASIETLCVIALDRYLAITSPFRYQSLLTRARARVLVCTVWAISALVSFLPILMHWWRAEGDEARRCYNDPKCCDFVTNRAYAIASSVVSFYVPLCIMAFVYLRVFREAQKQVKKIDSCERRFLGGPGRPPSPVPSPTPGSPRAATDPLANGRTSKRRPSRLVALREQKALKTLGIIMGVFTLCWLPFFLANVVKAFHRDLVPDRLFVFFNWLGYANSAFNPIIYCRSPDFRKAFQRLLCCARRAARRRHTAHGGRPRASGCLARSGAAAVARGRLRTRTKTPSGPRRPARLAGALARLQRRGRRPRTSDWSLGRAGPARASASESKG
T2 sequence (P26255 whole entry): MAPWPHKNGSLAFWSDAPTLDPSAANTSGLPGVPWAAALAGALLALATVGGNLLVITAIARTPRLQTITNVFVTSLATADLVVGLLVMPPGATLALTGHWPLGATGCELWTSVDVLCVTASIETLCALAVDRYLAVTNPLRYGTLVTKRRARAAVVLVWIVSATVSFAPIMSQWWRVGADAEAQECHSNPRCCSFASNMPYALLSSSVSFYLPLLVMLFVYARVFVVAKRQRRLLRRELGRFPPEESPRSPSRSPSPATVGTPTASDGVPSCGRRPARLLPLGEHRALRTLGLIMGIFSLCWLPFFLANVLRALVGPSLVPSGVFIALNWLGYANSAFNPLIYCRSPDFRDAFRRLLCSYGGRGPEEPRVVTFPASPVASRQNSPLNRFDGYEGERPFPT

Structure (SMILES): C[C@H](Cc1ccc2c(c1)OC(C(=O)[O-])(C(=O)[O-])O2)NC[C@H](O)c1cccc(Cl)c1.[Na+].[Na+] (stereo in doubt) [CL2, (R*,R*)-(±)-5(2-((2-(3-chlorophenyl)-2-hydroxyethyl)amino)propyl)-1,3-benzodioxole-2,2-dicarboxylic acid, disodium salt]
- Average Daily Food Consumption ([1]; dose 0.002 % wt of chow): 5.2 g/animal
- Change in weight [1, 7]: 1.6 grams
- Change in weight ([1]; dose 0.002 % wt of chow, week 2): 4.1 grams
- Change in weight ([1]; dose 0.002 % wt of chow, week 3): 4.7 grams
- Change in weight [1, 8]: 7.3 grams
- Average Daily Food Consumption ([1]; dose 0.005 % wt of chow): 5.9 g/animal
- Change in weight [1, 9]: 0.2 grams
- Change in weight ([1]; dose 0.005 % wt of chow, week 2): 1.6 grams
- Change in weight ([1]; dose 0.005 % wt of chow, week 3): 2.4 grams
- Change in weight [1, 10]: 4.7 grams
- Plasma Glucose Levels ([2]; dose 0.0005 % wt of chow, week 0 (before treatment)): 218 mg/100 ml
- Plasma Glucose Levels ([2]; dose 0.0005 % wt of chow, week 1): 193 mg/100 ml
- Plasma Glucose Levels ([2]; dose 0.0005 % wt of chow, week 4): 240 mg/100 ml
- Plasma Glucose Levels [2, 11]: 220 mg/100 ml
- Plasma Glucose Levels [2, 7]: 162 mg/100 ml
- Plasma Glucose Levels [2, 8]: 197 mg/100 ml
- Plasma Glucose Levels [2, 12]: 220 mg/100 ml
- Plasma Glucose Levels [2, 9]: 145 mg/100 ml
- Plasma Glucose Levels [2, 10]: 165 mg/100 ml
- Plasma Glucose Levels [3, 11]: 453 mg/100 ml
- Plasma Glucose Levels [3, 7]: 236 mg/100 ml
- Plasma Glucose Levels ([3]; dose 0.002 % wt of chow, week 5): 190 mg/100 ml
- Plasma Glucose Levels ([3]; dose 0.002 % wt of chow, week 7): 25 mg/100 ml
- Plasma Glucose Levels [3, 12]: 452 mg/100 ml
- Plasma Glucose Levels [3, 9]: 155 mg/100 ml
- Plasma Glucose Levels ([3]; dose 0.005 % wt of chow, week 5): 145 mg/100 ml
- Plasma Glucose Levels ([3]; dose 0.005 % wt of chow, week 7): 16 mg/100 ml
- EC50 [4]: > 1000 µM
- β1 activity [4, 13]: no measurable β1 activity
- β3 potency in comparison [5]: slightly greater β3 potency than does BRL2
- EC50 [6]: > 100 µM
- β2 activity [6, 13]: only minimal β2 activity at 1×10^-4 M
